# Laboratory results from patent publication US10857201B2, “NNIF and nNIF-related peptides and related methods” (UNIVERSITY OF UTAH RESEARCH FOUNDATION, priority 2016, dated 2020).
# Entries after “also recorded” stand apart in the source; their conditions may differ.
# Legend:
# [1] = system: neutrophil extracellular trap (NET) formation; assay: In vitro NET formation by stimulated human PMNs (live cell imaging, NET-associated histone H3 release); type: cell-based; settings: for PMA-stimulated NET deployment: PMA 20 nM, 1 hour preincubation; for PMA-stimulated NET deployment / NET formation triggered by heme: peptides 1 nM; for NET formation triggered by LPS: adult PMNs preincubated with agent, LPS 100 ng/mL, 1 hour; for NET formation triggered by heme: heme 1 μM; for relative inhibition of NETosis (order of potency): initial comparison of NRPs
# Procedure: Qualitative assessment of NET formation was performed as previously reported (see Yost C C, et al., Blood. 2009; 113 (25):6419-27 and McInturff A M, et al., Blood. 2012; 120 (15):3118-25). Briefly, primary PMNs isolated from preterm infants, healthy term infants, and healthy adults (2×10^6 cells/mL) were incubated with control buffer or stimulated with indicated agonists or bacteria for 1 hour at 37° C. in 5% CO2/95% air on glass coverslips coated with poly-L-lysine. For selected experiments, primary PMNs were pre-incubated with autologous plasma, cord blood plasma, nNIF (0.2-70 nM), CRISPP (0.2-70 nM), nNIF-SCR (1 nM), or CRISPP-SCR (1 nM) for one hour prior to stimulation. After pre-incubation and/or stimulation, PMNs were gently washed with PBS and incubated with a mixture of cell permeable (SYTO® Green, MOLECULAR PROBES®) and impermeable (SYTOX® Orange, MOLECULAR PROBES®) DNA fluorescent dyes. Confocal microscopy was accomplished using a FV1000 IX81 confocal microscope and FLUOVIEW™ software (OLYMPUS™). Both 20× and 60× objectives were used. Z-series images were obtained at a step size of 1 μm over a range of 20 μm for each field. FLUOVIEW™ and ADOBE™ PHOTOSHOP™ CS2 software was used for image processing.
# Using BSL 2 safety protocols, primary PMNs isolated from healthy adults (2×10^6 cells/mL) were incubated with mock infection buffer or live dengue virus (M010.05) as for live cell imaging. After a 1-hour incubation, the infected PMNs were fixed with 2% p-FA for 10 minutes prior to incubation with fluorescently-labeled, cell-permeable and cell-impermeable DNA dyes, and imaged as for live cell imaging using confocal microscopy.
# NET-associated histone H3 content was determined as previously described (see McInturff A M, et al., Blood. 2012; 120 (15):3118-25). After live cell imaging of control and stimulated primary PMNs (2×10^6/mL; various agonists), the cells were incubated with PBS containing DNase (40 U/mL) for 15 minutes at room temperature to break down and release NETs formed in response to stimulation. The supernatant was gently removed and centrifuged at 420×g for 5 minutes. The cell-free supernatant was then mixed 3:1 with 4× Laemmli buffer prior to western blotting. A polyclonal primary antibody against human histone H3 protein (CELL SIGNALING®) and infrared-conjugated secondary antibodies (LI-COR®) were used. Imaging and densitometry were performed on the ODYSSEY® infrared imaging system)(LI-COR®). This assay was previously validated as a surrogate for NET formation under in vitro conditions (see McInturff A M, et al., Blood. 2012; 120 (15):3118-25) as employed in the present studies.
# Without being bound by any specific theory, it was hypothesized that placentally expressed HTRA1, a serine protease, regulates the formation of NET-inhibitory peptides through cleavage of AAT. To test this hypothesis, term and preterm placenta were assessed for HTRA1 expression via western blotting. HTRA1 and AAT plasma expression from term and preterm infants and adults were determined by ELISA. Bioactive (0.5 μg) or placental eluted HTRA1 was incubated with AAT (8 μM) for 18 hours at 37° C. Carboxy-terminus fragments of AAT were detected using western blotting and mass spectrometry. The reaction products were incubated for 1 hour with PMNs isolated from healthy adults prior to LPS stimulation (100 ng/mL) and assessed for NET formation using live cell imaging. Reactive oxygen species were assessed using flow cytometry, chemotaxis using a modified Boyden chamber assay, and bacterial killing using E. coli.
# [2] = molecular target: T1, recombinant PAD4 (Homo sapiens, UniProt Q9UM07); assay: Cell-free PAD4 deimination assay; type: biochemical; settings: for PAD4 activity: cell-free, synthetic substrate, nNIF 1 nM, Cl-amidine 10 μM; for order of potency of inhibition of PAD4: initial comparison of NRPs
# T1 construct: purchased CAYMAN
# T1 sequence (Q9UM07 whole entry): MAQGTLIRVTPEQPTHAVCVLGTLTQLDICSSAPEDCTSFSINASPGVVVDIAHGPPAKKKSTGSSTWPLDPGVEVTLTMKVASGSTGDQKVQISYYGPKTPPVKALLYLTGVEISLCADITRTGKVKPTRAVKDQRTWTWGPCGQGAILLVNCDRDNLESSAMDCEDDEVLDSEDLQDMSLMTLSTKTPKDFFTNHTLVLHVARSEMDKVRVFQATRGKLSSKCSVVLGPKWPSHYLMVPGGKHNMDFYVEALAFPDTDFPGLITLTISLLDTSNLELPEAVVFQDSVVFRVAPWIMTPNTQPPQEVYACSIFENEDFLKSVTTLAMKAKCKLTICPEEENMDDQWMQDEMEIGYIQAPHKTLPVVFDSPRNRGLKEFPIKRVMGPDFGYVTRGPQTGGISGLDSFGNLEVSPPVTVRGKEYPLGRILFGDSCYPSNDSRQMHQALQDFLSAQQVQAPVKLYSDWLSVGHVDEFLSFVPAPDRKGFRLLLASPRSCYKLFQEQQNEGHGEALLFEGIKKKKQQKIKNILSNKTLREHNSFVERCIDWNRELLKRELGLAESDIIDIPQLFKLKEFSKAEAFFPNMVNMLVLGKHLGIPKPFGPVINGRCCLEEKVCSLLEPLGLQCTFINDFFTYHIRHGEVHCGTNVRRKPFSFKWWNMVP
# Procedure: One way ANOVA with Tukey's post hoc testing, ***P<0.001.
# nNIF inhibition of PAD4 activity was determined using a PAD4 inhibitor screening assay kit (CAYMAN™). Briefly, nNIF (1 nM) was incubated with recombinant PAD4 and PAD4 enzyme substrate (2 mM) in PAD4 assay reagent for 30 minutes at 37° C. […] The reaction was stopped with PAD4 Stop Solution and detected using an included ammonia detector assay. Ammonia detector fluorescence was measured at 470 nm following excitation at 405 nm on a SPECTRAMAX™ M5 fluorescence plate reader (MOLECULAR DEVICES™).
# [3] = molecular target: T2, neutrophil elastase (NE) (Homo sapiens, UniProt P08246); assay: Neutrophil elastase activity assay; type: biochemical; settings: in vitro; (MeOSuc)-AAPV-(pNA) 160 μM, 3 hours, 37° C., and additional assays
# T2 construct: purchased SIGMA-ALDRICH
# T2 sequence (P08246 30-267): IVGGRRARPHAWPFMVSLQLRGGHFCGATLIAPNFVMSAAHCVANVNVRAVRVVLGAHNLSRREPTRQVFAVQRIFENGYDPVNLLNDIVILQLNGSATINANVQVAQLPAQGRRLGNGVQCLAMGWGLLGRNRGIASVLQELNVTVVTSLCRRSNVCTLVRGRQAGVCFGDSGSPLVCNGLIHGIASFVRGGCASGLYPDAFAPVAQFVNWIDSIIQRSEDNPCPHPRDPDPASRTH
# Procedure: FIG. 12B depicts NE enzyme activity that was examined by cleavage of the synthetic substrate (MeOSuc)-AAPV-(pNA) to (MeOSuc)-AAPV and (pNA) as products detected by liquid chromatography and chromatogram peak identification by mass spectroscopy. (MeOSuc)-AAPV-(pNA) (160 μm) was incubated with NE (2 mU), sivelestat (160 μm), or NE and sivelestat (left panel) or with NE (2 mU), nNIF ([…]), or NE and nNIF (right panel) for 3 hours at 37° C. Chromatograms are offset on the X and Y axes for ease of comparison. In the presence of NE alone, the (MeOSvc)-AAPV-(pNA) peak was almost completely eliminated and (MeOSvc)-AAPV and (pNA) peaks were generated. […] In contrast, it was not inhibited by nNIF.
# Synthetic fluorogenic substrate of NE, (MeOSuc)-AAPV-(pNA) (160 μM), was incubated with bioactive NE (500 nM)±the NE inhibitor, sivelestat (160 μM) or nNIF (50 nM), for 3 hours at 37° C. The reactions were quenched with 5% glacial acetic acid and centrifuged at 14,000 rpm for 5 minutes. Chromatograms were obtained using an AGILENT™ 1100 Series HPLC and a PHENOMENEX® 5 μm C18 LUNA® column (100 Å, 4.6×150 mm) over a 30 minute 10% to 90% B gradient (Buffer A 0.1% TFA in H2O, Buffer B 0.1% TFA in ACN). Mass spectra were obtained for secondary validation of the reaction products using an API® 3500 triple quadrupole mass spectrometer. Chromatograms were offset on both the X and Y axes (by 0.5 minutes and 0.1 A214, respectively) for greater visibility.
Substance,PMA-stimulated NET deployment [1],"NET formation induced by live Staphylococcus aureus ([1]; S. aureus MOI 100:1, peptide 1 nM)",NET formation triggered by LPS [1],"NET generation stimulated by dengue virus ([1]; dengue virus MOI 0.05:1, peptide 1 nM)",NET formation triggered by heme [1],relative inhibition of NETosis (order of potency) [1],PAD4 activity [2],order of potency of inhibition of PAD4 [2],NE activity (substrate cleavage) [3]
"M_IPPEVKFNKPFVFLMIDQNTKVPLFMGK [CRISPP, consensus peptide based on factors present in the blood of patients with cancer]",blocked,inhibited,inhibits NET formation; also recorded: inhibited LPS-stimulated NET deployment; also recorded: inhibit NET formation at nanomolar concentrations,inhibited,inhibit,nNIF ≈CRISPP>A1ATm^358,inhibited,nNIF ≈CRISPP>A1ATm^358,neither nNIF nor CRISPP inhibited NE activity
KFNKPFVFLMIEQNTKSPLFMGKVVNPTQ (listed as Homo sapiens) [nNIF],blocked,,potent NET-inhibitory activity; also recorded: inhibits NET formation; also recorded: inhibited LPS-stimulated NET deployment; also recorded: inhibit NET formation at nanomolar concentrations,,inhibit,nNIF ≈CRISPP>A1ATm^358,blocked its activity,nNIF ≈CRISPP>A1ATm^358,neither nNIF nor CRISPP inhibited NE activity; also recorded: not inhibited
